Experimental data from PubChem BioAssay (NCI).
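GI50 is the concentration that inhibits growth by half. TGI: total growth inhibition.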

How the values were obtained:
Assay in all cases: inhibition of tumour cell growth, NCI panel, 384-well format
EKVX NSCLC = system: EKVX NSCLC
HT29 colon = system: HT29 colon
SNB-19 CNS = system: SNB-19 CNS
MDA-MB-468 breast = system: MDA-MB-468 breast
MALME-3M melanoma = system: MALME-3M melanoma
UACC-257 melanoma = system: UACC-257 melanoma
CCRF-CEM leukemia = system: CCRF-CEM leukemia
LOX IMVI melanoma = system: LOX IMVI melanoma
DU-145 prostate = system: DU-145 prostate
T-47D breast = system: T-47D breast
SF-295 CNS = system: SF-295 CNS
OVCAR-8 ovarian = system: OVCAR-8 ovarian
OVCAR-4 ovarian = system: OVCAR-4 ovarian

## O=C(NC[C@H](O)CN1CCc2ccccc2C1)c1cc(NC2COC2)ncn1
EKVX NSCLC
  GI50: > 100 µM
  TGI: > 100 µM
HT29 colon
  GI50: > 100 µM
  TGI: > 100 µM
SNB-19 CNS
  GI50: > 100 µM
  TGI: > 100 µM
MDA-MB-468 breast
  GI50: > 100 µM
  TGI: > 100 µM
MALME-3M melanoma
  GI50: > 100 µM
  TGI: > 100 µM
UACC-257 melanoma
  GI50: > 100 µM
  TGI: > 100 µM
CCRF-CEM leukemia
  GI50: > 100 µM
  TGI: > 100 µM
LOX IMVI melanoma
  GI50: > 100 µM
  TGI: > 100 µM
DU-145 prostate
  GI50: > 100 µM
  TGI: > 100 µM
T-47D breast
  GI50: 4.97 µM
  TGI: > 100 µM
SF-295 CNS
  GI50: > 100 µM
  TGI: > 100 µM
OVCAR-8 ovarian
  GI50: > 100 µM
  TGI: > 100 µM
OVCAR-4 ovarian
  GI50: 21.8 µM
  TGI: > 100 µM

## CN1CCN(c2ccc(Nc3cc(-c4cccc(-n5ccc6cc(C7CC7)cc(F)c6c5=O)c4CO)cn(C)c3=O)nc2)CC1
EKVX NSCLC
  GI50: 2.03 µM
  TGI: 4.57 µM
HT29 colon
  GI50: 1.72 µM
  TGI: 3.19 µM
SNB-19 CNS
  GI50: 3.96 µM
  TGI: 13.5 µM
MDA-MB-468 breast
  GI50: 1.7 µM
  TGI: 3.16 µM
MALME-3M melanoma
  GI50: 1.86 µM
  TGI: 3.27 µM
UACC-257 melanoma
  GI50: 1.74 µM
  TGI: 3.13 µM
CCRF-CEM leukemia
  GI50: 1.78 µM
  TGI: 3.18 µM
LOX IMVI melanoma
  GI50: 2.04 µM
  TGI: 3.52 µM
DU-145 prostate
  GI50: 2.97 µM
  TGI: 9.08 µM
T-47D breast
  GI50: 1.75 µM
  TGI: 3.71 µM
SF-295 CNS
  GI50: 2.21 µM
  TGI: 4.93 µM
OVCAR-8 ovarian
  GI50: 1.79 µM
  TGI: 3.56 µM
OVCAR-4 ovarian
  GI50: 1.63 µM
  TGI: 3.11 µM
